Measured values as given in patent publication US8563730B2, “Pyrazole and fused pyrazole glucokinase activators” (Takeda San Diego, Inc., priority 2008, dated 2013).
Where “and” joins values, the source holds several entries; their conditions need not be identical. Equal values may be shown once. Read-outs that look alike come from different tables or passages of the source.

Biological target: T1, GK (glucokinase, residues 12-465) (Homo sapiens, UniProt P35557)
T1 construct: I.D. No. 1 corresponds to residues 12-465 of glucokinase; made in house; host or cells: DH10b-T1r E. coli
T1 sequence (P35557 with tags, fused parts or gaps isoform P35557-2): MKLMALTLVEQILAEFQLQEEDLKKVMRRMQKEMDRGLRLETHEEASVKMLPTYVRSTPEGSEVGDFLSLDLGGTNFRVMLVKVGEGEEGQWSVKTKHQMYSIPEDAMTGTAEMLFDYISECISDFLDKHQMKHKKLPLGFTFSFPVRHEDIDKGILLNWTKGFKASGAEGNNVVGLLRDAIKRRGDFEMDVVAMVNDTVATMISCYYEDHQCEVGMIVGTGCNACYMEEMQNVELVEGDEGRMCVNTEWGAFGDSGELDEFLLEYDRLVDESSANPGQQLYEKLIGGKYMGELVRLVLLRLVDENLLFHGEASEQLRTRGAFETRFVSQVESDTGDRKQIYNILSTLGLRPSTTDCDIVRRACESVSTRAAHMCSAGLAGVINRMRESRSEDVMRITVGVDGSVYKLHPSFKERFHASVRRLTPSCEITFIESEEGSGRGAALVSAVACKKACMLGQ
Assay: enzymatic glucokinase activity assay (ATP consumption, KinaseGlo luminescence)
Type: biochemical
Conditions: 5 μM ATP, 5 mM Glucose, reported as bins; for EC50: Kact = concentration that displays 50% of the maximal increase in GK activity, 60 min, room temperature, read-out: pKact
Summary of the method: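 E. coli-expressed recombinant GK purified by two anion-exchange steps. Reaction in 25 mM Hepes pH 7.2, 10 mM MgCl2, 1 mM DTT, 5 μM ATP, 5 mM glucose, 2% DMSO, 60 min at room temperature. ATP consumption quantified by KinaseGlo luminescence; pKact and % ACTmax derived by non-linear curve fitting.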

[1] = calculated maximal gain in GK enzyme activity at a saturating concentration of the compound, read-out: % ACTmax
[2] = read-out: % ACTmax, calculated maximal gain in GK enzyme activity at a saturating concentration of the compound

COc1ccc2c(cnn2[C@H](CC2CCOCC2)C(=O)Nc2cnccn2)c1S(=O)(=O)C1CC1 [Compound 93, (R)-2-(4-(cyclopropylsulfonyl)-5-methoxy-1H-indazol-1-yl)-N-(pyrazin-2-yl)-3-(tetrahydro-2H-pyran-4-yl)propanamide]
EC50: ≥ 15.8 µM
Emax [1]: ≤ 90%

COc1ccc2c(cnn2[C@@H](CC2CCOCC2)C(=O)Nc2cnccn2)c1S(=O)(=O)C1CC1 [Compound 94, (S)-2-(4-(cyclopropylsulfonyl)-5-methoxy-1H-indazol-1-yl)-N-(pyrazin-2-yl)-3-(tetrahydro-2H-pyran-4-yl)propanamide]
EC50: ≤ 0.316 µM
Emax [1]: 90 to 100%

Cn1ccc(NC(=O)C(CC2CCOCC2)n2ncc3c(S(=O)(=O)C4CC4)ccnc32)n1 (stereo not shown) [Compound 95, 2-(4-(cyclopropylsulfonyl)-1H-pyrazolo[3,4-b]pyridin-1-yl)-N-(1-methyl-1H-pyrazol-3-yl)-3-(tetrahydro-2H-pyran-4-yl)propanamide]
EC50: 1.58 to 3.16 µM
Emax [1]: 101 to 105%

Nc1cc(S(=O)(=O)C2CC2)c2cnn(C(CC3CCOCC3)C(=O)Nc3cnccn3)c2n1 (stereo not shown) [Compound 96, 2-(6-amino-4-(cyclopropylsulfonyl)-1H-pyrazolo[3,4-b]pyridin-1-yl)-N-(pyrazin-2-yl)-3-(tetrahydro-2H-pyran-4-yl)propanamide]
EC50: 0.398 to 1.26 µM
Emax [1]: 101 to 105%

O=C(Nc1cnccn1)C(CC1CCOCC1)n1ncc2c(S(=O)(=O)C3CC3)ccnc21 (stereo not shown) [Compound 97, 2-(4-(cyclopropylsulfonyl)-1H-pyrazolo[3,4-b]pyridin-1-yl)-N-(pyrazin-2-yl)-3-(tetrahydro-2H-pyran-4-yl)propanamide]
EC50: 0.398 to 1.26 µM
Emax [1]: 106 to 110%

Cn1ccc(NC(=O)[C@H](CC2CCOCC2)n2ncc3c(S(=O)(=O)C4CC4)ccnc32)n1 [Compound 98, (S)-2-(4-(cyclopropylsulfonyl)-1H-pyrazolo[3,4-b]pyridin-1-yl)-N-(1-methyl-1H-pyrazol-3-yl)-3-(tetrahydro-2H-pyran-4-yl)propanamide]
EC50: 0.398 to 1.26 µM
Emax [1]: 90 to 100%

Cn1ccc(NC(=O)[C@@H](CC2CCOCC2)n2ncc3c(S(=O)(=O)C4CC4)ccnc32)n1 [Compound 99, (R)-2-(4-(cyclopropylsulfonyl)-1H-pyrazolo[3,4-b]pyridin-1-yl)-N-(1-methyl-1H-pyrazol-3-yl)-3-(tetrahydro-2H-pyran-4-yl)propanamide]
EC50: 3.98 to 12.6 µM
Emax [1]: 90 to 100%

N#Cc1cc(S(=O)(=O)C2CC2)c2cnn(C(CC3CCOCC3)C(=O)Nc3cnccn3)c2c1 (stereo not shown) [Compound 100, 2-(6-cyano-4-(cyclopropylsulfonyl)-1H-indazol-1-yl)-N-(pyrazin-2-yl)-3-(tetrahydro-2H-pyran-4-yl)propanamide]
EC50: 0.398 to 1.26 µM
Emax [1]: ≤ 90%

Cn1ccc(NC(=O)C(CC2CCOCC2)n2ncc3c(S(=O)(=O)C4CC4)cc(Cl)cc32)n1 (stereo not shown) [Compound 101, 2-(6-chloro-4-(cyclopropylsulfonyl)-1H-indazol-1-yl)-N-(1-methyl-1H-pyrazol-3-yl)-3-(tetrahydro-2H-pyran-4-yl)propanamide]
EC50: 0.398 to 1.26 µM
Emax [1]: 90 to 100%

O=C(Nc1cnccn1)C(CC1CCOCC1)n1ncc2c(S(=O)(=O)C3CC3)cc(Cl)cc21 (stereo not shown) [Compound 102, 2-(6-chloro-4-(cyclopropylsulfonyl)-1H-indazol-1-yl)-N-(pyrazin-2-yl)-3-(tetrahydro-2H-pyran-4-yl)propanamide]
EC50: 0.398 to 1.26 µM
Emax [1]: 90 to 100%

O=C(Nc1cnccn1)C(CC1CCOCC1)n1ncc2c(S(=O)(=O)C3CC3)cc(F)cc21 (stereo not shown) [Compound 103, 2-(4-(cyclopropylsulfonyl)-6-fluoro-1H-indazol-1-yl)-N-(pyrazin-2-yl)-3-(tetrahydro-2H-pyran-4-yl)propanamide]
EC50: 1.58 to 3.16 µM
Emax [1]: 101 to 105%

Cn1ccc(NC(=O)C(CC2CCOCC2)n2ncc3c(S(=O)(=O)C4CC4)cc(F)cc32)n1 (stereo not shown) [Compound 104, 2-(4-(cyclopropylsulfonyl)-6-fluoro-1H-indazol-1-yl)-N-(1-methyl-1H-pyrazol-3-yl)-3-(tetrahydro-2H-pyran-4-yl)propanamide]
EC50: 1.58 to 3.16 µM
Emax [1]: 90 to 100%

Cn1ccc(NC(=O)[C@H](CC2CCOCC2)n2ncc3c(S(=O)(=O)C4CC4)cc(C#N)cc32)n1 [Compound 105, (S)-2-(6-cyano-4-(cyclopropylsulfonyl)-1H-indazol-1-yl)-N-(1-methyl-1H-pyrazol-3-yl)-3-(tetrahydro-2H-pyran-4-yl)propanamide]
EC50: 0.398 to 1.26 µM and ≤ 0.316 µM
Emax [1]: ≤ 90%

Cn1ccc(NC(=O)[C@@H](CC2CCOCC2)n2ncc3c(S(=O)(=O)C4CC4)cc(C#N)cc32)n1 [Compound 106, (R)-2-(6-cyano-4-(cyclopropylsulfonyl)-1H-indazol-1-yl)-N-(1-methyl-1H-pyrazol-3-yl)-3-(tetrahydro-2H-pyran-4-yl)propanamide]
EC50: ≥ 15.8 µM
Emax [1]: 90 to 100%

NC(=O)c1ccc(NC(=O)[C@H](CC2CCOCC2)n2ncc3c(S(=O)(=O)C4CC4)cccc32)nc1 [Compound 107, (S)-6-(2-(4-(cyclopropylsulfonyl)-1H-indazol-1-yl)-3-(tetrahydro-2H-pyran-4-yl)propanamido)nicotinamide]
EC50: ≤ 0.316 µM
Emax [2]: ≥ 111%

NC(=O)c1ccc(NC(=O)[C@@H](CC2CCOCC2)n2ncc3c(S(=O)(=O)C4CC4)cccc32)nc1 [Compound 108, (R)-6-(2-(4-(cyclopropylsulfonyl)-1H-indazol-1-yl)-3-(tetrahydro-2H-pyran-4-yl)propanamido)nicotinamide]
EC50: 3.98 to 12.6 µM
Emax [2]: ≥ 111%

COc1ccc2c(cnn2[C@@H](CC2CCOCC2)C(=O)Nc2ccn(C)n2)c1S(=O)(=O)C1CC1 [Compound 109, (S)-2-(4-(cyclopropylsulfonyl)-5-methoxy-1H-indazol-1-yl)-N-(1-methyl-1H-pyrazol-3-yl)-3-(tetrahydro-2H-pyran-4-yl)propanamide]
EC50: ≤ 0.316 µM
Emax [1]: 101 to 105%

COc1ccc2c(cnn2[C@H](CC2CCOCC2)C(=O)Nc2ccn(C)n2)c1S(=O)(=O)C1CC1 [Compound 110, (R)-2-(4-(cyclopropylsulfonyl)-5-methoxy-1H-indazol-1-yl)-N-(1-methyl-1H-pyrazol-3-yl)-3-(tetrahydro-2H-pyran-4-yl)propanamide]
EC50: ≥ 15.8 µM
Emax [1]: 106 to 110%

Nc1cc(S(=O)(=O)C2CC2)c2cnn([C@H](CC3CCOCC3)C(=O)Nc3ncc(F)s3)c2n1 [Compound 111, (R)-2-(6-amino-4-(cyclopropylsulfonyl)-1H-pyrazol[3,4-b]pyridin-1-yl)-N-(5-fluorothiazol-2-yl)-3-(tetrahydro-2H-pyran-4-yl)propanamide]
EC50: 0.398 to 1.26 µM
Emax [2]: 106 to 110%

Nc1cc(S(=O)(=O)C2CC2)c2cnn([C@@H](CC3CCOCC3)C(=O)Nc3ncc(F)s3)c2n1 [Compound 112, (S)-2-(6-amino-4-(cyclopropylsulfonyl)-1H-pyrazol[3,4-b]pyridin-1-yl)-N-(5-fluorothiazol-2-yl)-3-(tetrahydro-2H-pyran-4-yl)propanamide]
EC50: ≤ 0.316 µM
Emax [2]: 106 to 110%

O=C1CC[C@H](C[C@@H](C(=O)Nc2ncc(Cl)s2)n2ncc3c(S(=O)(=O)C4CC4)cccc32)C1 [Compound 113, (S)-N-(5-chlorothiazol-2-yl)-2-(4-(cyclopropylsulfonyl)-1H-indazol-1-yl)-3-((R)-3-oxocyclopentyl)propanamide]
EC50: 0.398 to 1.26 µM
Emax [1]: 101 to 105%

O=C1CC[C@H](C[C@H](C(=O)Nc2ncc(Cl)s2)n2ncc3c(S(=O)(=O)C4CC4)cccc32)C1 [Compound 114, (R)-N-(5-chlorothiazol-2-yl)-2-(4-(cyclopropylsulfonyl)-1H-indazol-1-yl)-3-((R)-3-oxocyclopentyl)propanamide]
EC50: ≤ 0.316 µM
Emax [1]: 101 to 105%

O=C(Nc1ncc(F)s1)C(CC1CCOCC1)n1ncc2c(S(=O)(=O)C3CC3)cc(F)cc21 (stereo not shown) [Compound 115, 2-(4-(cyclopropylsulfonyl)-6-fluoro-1H-indazol-1-yl)-H-(5-fluorothiazol-2-yl)-3-(tetrahydro-2H-pyran-4-yl)propanamide]
EC50: ≤ 0.316 µM
Emax [1]: 106 to 110%

Cc1ccc(NC(=O)C(CC2CCOCC2)n2ncc3c(S(=O)(=O)C4CC4)cccc32)nn1 (stereo not shown) [Compound 116, 2-(4-(cyclopropylsulfonyl)-1H-indazol-1-yl)-N-(6-methylpyridazin-3-yl)-3-(tetrahydro-2H-pyran-4-yl)propanamide]
EC50: 3.98 to 12.6 µM
Emax [1]: ≤ 90%

NC(=O)c1ccc(NC(=O)C(CC2CCOCC2)n2ncc3c(S(=O)(=O)C4CC4)cc(F)cc32)nc1 (stereo not shown) [Compound 117, 6-(2-(4-(cycloproypylsulfonyl)-6-fluoro-1H-indazol-1-yl)-3-(tetrahydro-2H-pyran-4-yl)propanamido)nicotinamide]
EC50: ≤ 0.316 µM
Emax [1]: 106 to 110%

Cn1ccc(NC(=O)[C@@H](CC2CCOCC2)n2ncc3c(S(=O)(=O)C4CC4)cccc32)n1 [Compound 118]
EC50: ≥ 15.8 µM
Emax [2]: ≤ 90%
